± gives the standard deviation of the averaged measurements.
Tests used:
CABOZANTINIB = compound: COc1cc2nccc(Oc3ccc(NC(=O)C4(C(=O)Nc5ccc(F)cc5)CC4)cc3)c2cc1OC [CABOZANTINIB]; assay: surviving fraction relative to DMSO-only wells; higher = less growth inhibition; conditions: exposure time: 5 days
Summary of the method: (§1)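 Log-phase tumour cell lines, 250–500 cells per well in 384-well plates, received inhibitors at 0.5, 1, 5, 10, 50, 100, 500 and 1000 nM continuously for five days, starting 24 hours after seeding. Viability was quantified with CellTiter-Glo luminescence and normalised to the median of DMSO-only wells to give surviving fraction. Three screens were run per line, and a line stayed in only with replicate Pearson r >0.7 and median Z' >0.3.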

[1] = compound: C[C@@H]1CN(CC(=O)Nc2ccc3c(c2)Cc2cccc(-c4cc(=O)cc(N5CCOCC5)o4)c2S3)C[C@H](C)O1; assay: as above; conditions: exposure time: 5 days
Summary of the method: as §1

Test System | surviving fraction (CABOZANTINIB; 0.5 nM) | surviving fraction (CABOZANTINIB; 1 nM) | surviving fraction (CABOZANTINIB; 5 nM) | surviving fraction (CABOZANTINIB; 10 nM) | surviving fraction (CABOZANTINIB; 50 nM) | surviving fraction (CABOZANTINIB; 100 nM) | surviving fraction (CABOZANTINIB; 500 nM) | surviving fraction (CABOZANTINIB; 1000 nM) | surviving fraction ([1]; 0.5 nM) | surviving fraction ([1]; 1 nM) | surviving fraction ([1]; 5 nM) | surviving fraction ([1]; 10 nM) | surviving fraction ([1]; 50 nM) | surviving fraction ([1]; 100 nM) | surviving fraction ([1]; 500 nM) | surviving fraction ([1]; 1000 nM)
CCK81 LARGE INTESTINE | 0.691 ± 0.07 | 0.837 ± 0.062 | 0.725 ± 0.12 | 0.764 ± 0.019 | 0.704 ± 0.073 | 0.686 ± 0.075 | 0.718 ± 0.12 | 0.743 ± 0.08 |  |  |  |  |  |  |  | 
G292 BONE | 0.911 ± 0.047 | 0.977 ± 0.012 | 1.02 ± 0.078 | 1.02 ± 0.046 | 0.925 ± 0.04 | 0.876 ± 0.021 | 0.76 ± 0.035 | 0.722 ± 0.024 | 0.9787 ± 0.009 | 1.03 ± 0.026 | 0.995 ± 0.026 | 1 ± 0.046 | 0.994 ± 0.03 | 0.977 ± 0.034 | 0.856 ± 0.053 | 0.764 ± 0.017
HCC38 BREAST | 1.07 ± 0.1 | 1.14 ± 0.12 | 1.38 ± 0.22 | 1.34 ± 0.23 | 1.13 ± 0.074 | 1.24 ± 0.067 | 1.22 ± 0.1 | 1.34 ± 0.15 | 0.973 ± 0.15 | 0.988 ± 0.11 | 1.08 ± 0.19 | 1.02 ± 0.17 | 0.698 ± 0.23 | 0.631 ± 0.086 | 0.418 ± 0.12 | 0.391 ± 0.06
HCC70 BREAST | 0.985 ± 0.1 | 1.03 ± 0.048 | 1.07 ± 0.11 | 1.09 ± 0.065 | 1.04 ± 0.14 | 1.12 ± 0.045 | 1.09 ± 0.091 | 0.99 ± 0.051 | 1.03 ± 0.038 | 1.07 ± 0.092 | 1.1 ± 0.1 | 1.14 ± 0.07 | 1.15 ± 0.044 | 1.2 ± 0.037 | 1.1 ± 0.041 | 1.07 ± 0.02
HMLE3 BREAST | 0.925 ± 0.14 | 0.91 ± 0.032 | 0.98 ± 0.023 | 0.942 ± 0.08 | 0.992 ± 0.07 | 0.91 ± 0.064 | 0.72 ± 0.049 | 0.656 ± 0.0044 | 1 ± 0.041 | 0.914 ± 0.069 | 0.985 ± 0.082 | 0.954 ± 0.042 | 1 ± 0.058 | 0.949 ± 0.12 | 0.918 ± 0.024 | 0.807 ± 0.047
HMT3552 BREAST | 1.12 ± 0.044 | 1.04 ± 0.012 | 1.02 ± 0.021 | 1.03 ± 0.051 | 1.21 ± 0.067 | 1.09 ± 0.085 | 1.01 ± 0.061 | 0.988 ± 0.057 | 0.943 | 0.938 | 0.979 | 1.01 | 0.942 | 0.855 | 0.824 | 0.739
HS57T BREAST | 0.884 ± 0.062 | 0.87 ± 0.07 | 0.961 ± 0.024 | 0.983 ± 0.04 | 1.01 ± 0.037 | 0.972 ± 0.078 | 0.894 ± 0.066 | 0.888 ± 0.034 | 1.1 ± 0.058 | 1.05 ± 0.055 | 1.16 ± 0.017 | 1.1 ± 0.03 | 1.08 ± 0.042 | 1.08 ± 0.084 | 0.945 ± 0.069 | 0.87 ± 0.041
HS578T BREAST | 0.931 ± 0.14 | 0.97 ± 0.1 | 0.786 ± 0.087 | 1.12 ± 0.087 | 1.04 ± 0.08 | 1.2 ± 0.049 | 1.06 ± 0.075 | 0.998 ± 0.099 | 0.996 ± 0.12 | 0.965 ± 0.14 | 0.861 ± 0.04 | 0.883 ± 0.052 | 0.855 ± 0.13 | 0.814 ± 0.13 | 0.867 ± 0.089 | 0.69 ± 0.042

Reference: the supplement of paper PMC6045584
